This note sets out measurements from patent US20050197336A1 (Miikana Therapeutics Corporation, priority 2004, published 2005).

Structures are written as SMILES.

Experiment [1] has as its system Histone deacetylase (HDAC), HeLa cell nuclear extract. Put plainly: In vitro fluorescent histone deacetylase assay (Biomol kit, HeLa cell nuclear extract). It counts as biochemical. To be noted: compound at 100 μM; HeLa cell nuclear extract as HDAC source; substrate 50 μM; 10 min at room temperature. On the procedure: Histone deacetylase (HDAC) activity assays were performed using the HDAC fluorescent activity assay/drug discovery kit (Biomol Research Laboratories, Plymouth Meeting, Pa.) essentially according to the manufacturer's instructions. The included HeLa cell nuclear extract, which contains a mosaic of HDAC enzymes and other nuclear factors, was used as the source of HDAC activity. The final substrate concentration in the assay mixture was 50 μM. The reaction was allowed to proceed for 10 min at room temperature before stopping the reaction. Test compounds were prepared as 20 mM stock solutions in DMSO (Molecular Biology grade, Sigma-Aldrich Co. St. Louis, Mo.) and stored at −70° C. Serial dilutions of test compounds were prepared in assay buffer immediately prior to testing. DMSO was determined in a separate trial to have no significant effect on the activity of this assay at concentrations up to 5%; the final DMSO concentration in the wells was no more than 2% and therefore DMSO effects were safely neglected. Assays were performed in white polystyrene 96-well half-area assay plates (Corning, Corning, N.Y.) and measured on a Wallace 1420 fluorescent plate reader (Wallac Oy, Turku, Finland) with an excitation wavelength of 355 nm, an emission wavelength of 460 nm, and a 1 sec signal averaging time.

The next experiment relates to MCF7 cells. Briefly: Whole cell cytotoxicity assay: Sulforhodamine B. It counts as cell-based, human. To be noted: Homo sapiens; compound at 100 μM; MCF7 cell growth; 48 hours with drug; SRB staining. On the procedure: The following procedure can be found on the Developmental Therapeutics Program NCI/NIH web site at http://dtp.nci.nih.gov/brancehes/btb/ivclsp.html.
1. Human tumor cell lines of HT29, A549 and MCF7 are grown in DMEM containing 10% fetal bovine serum and 2 mM L-glutamine. Cells are plated in a 96 well plate at a density of 5000 cells per well in 100 μL of growth medium and incubated at 37° C., 5% CO2, for 24 hours prior to the addition of experimental compounds.
2. Experimental drugs are solubilized in DMSO for a final concentration of 20 mM immediately prior to use. Drugs are further diluted in growth media for a total of nine drug concentrations and a growth control. At the 24 hour time point, one plate of cells is fixed in situ with TCA as a measurement of the cell population at time zero, or the time of drug addition.
3. The plates are further incubated with drug for an additional 48 hours.
4. The cells are fixed in situ by gently aspirating off the culture media and then adding 50 μL of ice cold 10% TCA per well and incubated at 4° C. for 60 minutes. The plates are washed with tap water five times and allowed to air dry for 5 minute.
5. 50 μL of a 0.4% (w/v) Sulforhodamine B solution in 1% (v/v) acetic acid is added per well and incubated for 30 minutes at room temperature.
6. Following staining, plates are washed five times with 1% acetic acid to remove any unbound dye and then allowed to air dry for 5 minutes.
7. Stain is solubilized with 100 μL of 10 mM Tris pH 10.5 per well and placed on an orbital rotator for 5 minutes.
8. Absorbance is read at 570 nm.
In general terms: The SRB assay estimates cell density from bound dye.

Consider `CN(C)c1ccc(S(=O)(=O)N2CCN(c3ncc(C(=O)NO)s3)CC2)cc1` [Example 29, 2-[4-(4-dimethylaminophenylsulfonyl)-piperazin-1-yl]-thiazole-5-carboxylic acid hydroxyamide], for which the “% inhibition HDAC @ 100 μM” value in experiment [1] is on record as 100%. Testing at 100 µM in the experiment with MCF7 cells gave an inhibition of 98.5%.

In the case of `Cc1ccc(S(=O)(=O)N2CCN(c3ncc(C(=O)NO)s3)CC2)cc1Cl` [Example 30, 2-[4-(3-chloro-4-methylphenylsulfonyl)-piperazin-1-yl]-thiazole-5-carboxylic acid hydroxyamide], the “% inhibition HDAC @ 100 μM” value in experiment [1] came out at 99%. Further, in the experiment on MCF7 cells, testing at 100 µM gave an inhibition of 97.9%.

On to `Cc1c(Cl)cccc1S(=O)(=O)N1CCN(c2ncc(C(=O)NO)s2)CC1` [Example 32, 2-[4-(3-chloro-2-methylphenylsulfonyl)-piperazin-1-yl]-thiazole-5-carboxylic acid hydroxyamide], for which, in experiment [1], the “% inhibition HDAC @ 100 μM” value is 99%. Moreover, the inhibition (as a rule, how much of the control response was suppressed) at 100 µM in the experiment on MCF7 cells amounted to 98.1%.

As to `Cc1ccc(F)cc1S(=O)(=O)N1CCN(c2ncc(C(=O)NO)s2)CC1` [Example 33, 2-[4-(2-methyl-5-fluorophenylsulfonyl)-piperazin-1-yl]-thiazole-5-carboxylic acid hydroxyamide], the “% inhibition HDAC @ 100 μM” value in experiment [1] is 96%. In the experiment with MCF7 cells, this compound came in with an inhibition at 100 µM of 98.4%.

As for `O=C(NO)c1cnc(N2CCN(S(=O)(=O)c3ccccc3F)CC2)s1` [Example 34, 2-[4-(2-fluorophenylsulfonyl)-piperazin-1-yl]-thiazole-5-carboxylic acid hydroxyamide], the “% inhibition HDAC @ 100 μM” value in experiment [1] stood at 92%. The same compound gave an inhibition at 100 µM in the experiment on MCF7 cells of 97.7%.

As for `O=C(NO)c1cnc(N2CCN(S(=O)(=O)c3cccc(F)c3)CC2)s1` [Example 35, 2-[4-(3-fluorophenylsulfonyl)-piperazin-1-yl]-thiazole-5-carboxylic acid hydroxyamide], in experiment [1], the “% inhibition HDAC @ 100 μM” value came to 97%. The compound further displayed an inhibition at 100 µM in the experiment with MCF7 cells of 97.9%.

As for `O=C(NO)c1cnc(N2CCN(S(=O)(=O)c3ccc(F)c(F)c3)CC2)s1` [Example 36, 2-[4-(3,4-difluorophenylsulfonyl)-piperazin-1-yl]-thiazole-5-carboxylic acid hydroxyamide], the “% inhibition HDAC @ 100 μM” value in experiment [1] worked out at 98%. In the experiment on MCF7 cells, this compound gave an inhibition at 100 µM of 98.2%.

Consider `O=C(NO)c1cnc(N2CCN(S(=O)(=O)c3ccccc3C(F)(F)F)CC2)s1` [Example 37, 2-[4-(2-trifluoromethylphenylsulfonyl)-piperazin-1-yl]-thiazole-5-carboxylic acid hydroxyamide], for which the “% inhibition HDAC @ 100 μM” value in experiment [1] came out at 99%. In addition, in the experiment on MCF7 cells, the inhibition at 100 µM was found to be 98%.

Turning to `Cc1cccc(Cl)c1S(=O)(=O)N1CCN(c2ncc(C(=O)NO)s2)CC1` [Example 38], the “% inhibition HDAC @ 100 μM” value in experiment [1] was 100%. In the experiment on MCF7 cells, the inhibition at 100 µM turned out to be 97.8%.

`Cc1ccc(S(=O)(=O)N2CCN(c3ncc(C(=O)NO)s3)CC2)cc1F` [Example 40, 2-[4-(3-fluoro-4-methylphenylsulfonyl)-piperazin-1-yl]-thiazole-5-carboxylic acid hydroxyamide]: the “% inhibition HDAC @ 100 μM” value in experiment [1] is reported as 100%. This compound also registered an inhibition at 100 µM in the experiment on MCF7 cells of 99.1%.

On to `Cc1cc(F)ccc1S(=O)(=O)N1CCN(c2ncc(C(=O)NO)s2)CC1` [Example 41, 2-[4-(4-fluoro-2-methylphenylsulfonyl)-piperazin-1-yl]-thiazole-5-carboxylic acid hydroxyamide], for which the “% inhibition HDAC @ 100 μM” value in experiment [1] was 98%. Further, in the experiment on MCF7 cells, 100 µM produced 98.1% inhibition.

In the case of `O=C(NO)c1cnc(N2CCN(S(=O)(=O)c3cc4ccccc4s3)CC2)s1` [Example 43], the “% inhibition HDAC @ 100 μM” value in experiment [1] is recorded as 99%. Also, in the experiment with MCF7 cells, the inhibition at 100 µM was 91%.

For the compound `CSc1nccc(-c2ccc(S(=O)(=O)N3CCN(c4ncc(C(=O)NO)s4)CC3)s2)n1` [Example 45, 2-[4-(2-{2-methylthiopyrimidine-4-yl}-5-thiophenesulfonyl)-piperazin-1-yl]-thiazole-5-carboxylic acid hydroxyamide], in experiment [1], the “% inhibition HDAC @ 100 μM” value turned out to be 95%. In addition, at 100 µM the inhibition in the experiment with MCF7 cells was 78.7%.

On to `O=C(NO)c1cnc(N2CCN(S(=O)(=O)c3ccc4nsnc4c3)CC2)s1` [Example 46, 2-[4-(2,1,3-benzothiadiazole-5-sulfonyl)-piperazin-1-yl]-thiazole-5-carboxylic acid hydroxyamide], for which, in experiment [1], the “% inhibition HDAC @ 100 μM” value is on record as 98%. This compound displayed an inhibition at 100 µM in the experiment with MCF7 cells of 77.3%.

On to `O=C(NO)c1cnc(N2CCN(S(=O)(=O)c3ccc(Oc4ccccc4)nc3)CC2)s1` [Example 47, 2-[4-(2-phenoxypyridine-5-sulfonyl)-piperazin-1-yl]-thiazole-5-carboxylic acid hydroxyamide], for which the “% inhibition HDAC @ 100 μM” value in experiment [1] was 96%. The compound also came in with an inhibition at 100 µM with MCF7 cells of 90.2%.

As for `CN1CCOc2cc(S(=O)(=O)N3CCN(c4ncc(C(=O)NO)s4)CC3)ccc21` [Example 48, 2-[4-(N-methyl-2,3-dihydrobenzisoxazinylsulfonyl)-piperazin-1-yl]-thiazole-5-carboxylic acid hydroxyamide], the “% inhibition HDAC @ 100 μM” value in experiment [1] was determined as 96%. The inhibition at 100 µM in the experiment with MCF7 cells turned out to be 89.4%.

`O=C(NO)c1cnc(N2CCN(S(=O)(=O)c3cccnc3)CC2)s1` [Example 49, 2-[4-(pyridine-3-sulfonyl)-piperazin-1-yl]-thiazole-5-carboxylic acid hydroxyamide]: the “% inhibition HDAC @ 100 μM” value in experiment [1] was determined as 85%. Moreover, the inhibition at 100 µM with MCF7 cells was 95.4%.

With `Cc1ccc(S(=O)(=O)N2CCN(c3ncc(C(=O)NO)s3)CC2)cc1C` [Example 50, 2-[4-(3,4-dimethylphenylsulfonyl)-piperazin-1-yl]-thiazole-5-carboxylic acid hydroxyamide], in experiment [1], the “% inhibition HDAC @ 100 μM” value is on record as 99%. For the same compound, 100 µM produced 98.3% inhibition in the experiment on MCF7 cells.

Regarding `O=C(NO)c1cnc(N2CCN(S(=O)(=O)c3cccc(-c4ccccc4)c3)CC2)s1` [Example 51, 2-[4-(3-biphenylsulfonyl)-piperazin-1-yl]-thiazole-5-carboxylic acid hydroxyamide], the “% inhibition HDAC @ 100 μM” value in experiment [1] turned out to be 100%. This compound also yielded an inhibition at 100 µM in the experiment on MCF7 cells of 97%.

For `CCCCS(=O)(=O)N1CCN(c2ncc(C(=O)NO)s2)CC1` [Example 53, 2-[4-(n-butylsulfonyl)piperazin-1-yl]-thiazole-5-carboxylic acid hydroxyamide], the “% inhibition HDAC @ 100 μM” value in experiment [1] is reported as 94%. The compound further returned an inhibition at 100 µM in the experiment with MCF7 cells of 89.9%.

Regarding `O=C(NO)c1cnc(N2CCN(S(=O)(=O)c3ccc(Br)s3)CC2)s1` [Example 55, 2-{4-[(5-bromothien-2-yl)sulfonyl]piperazin-1-yl}-N-hydroxy-1,3-thiazole-5-carboxamide], in experiment [1], the “% inhibition HDAC @ 100 μM” value turned out to be 9%. Also, in the experiment on MCF7 cells, at 100 µM the inhibition was 0%.

With `O=C(NO)c1cnc(N2CCN(S(=O)(=O)c3ccc(-c4ccc(F)cc4)cc3)CC2)s1` [Example 56, 2-{4-[(4′-fluoro-1,1′-biphenyl-4-yl)sulfonyl]piperazin-1-yl}-1,3-thiazole-5-carboxylic acid hydroxyamide], the “% inhibition HDAC @ 100 μM” value in experiment [1] is 98%. The inhibition at 100 µM with MCF7 cells worked out at 96.9%.

On to `O=C(NO)c1cnc(N2CCN(S(=O)(=O)c3ccc(-c4cccc(Cl)c4)cc3)CC2)s1` [Example 57, 2-{4-[(3′-chloro-1,1′-biphenyl-4-yl)sulfonyl]piperazin-1-yl}-1,3-thiazole-5-carboxylic acid hydroxyamide], for which the “% inhibition HDAC @ 100 μM” value in experiment [1] is recorded as 93%. Further, 100 µM produced 68.6% inhibition in the experiment on MCF7 cells.

On to `O=C(NO)c1cnc(N2CCN(S(=O)(=O)c3ccc(-c4ccccc4Cl)cc3)CC2)s1` [Example 58, 2-{4-[(2′-chloro-1,1′-biphenyl-4-yl)sulfonyl]piperazin-1-yl}-1,3-thiazole-5-carboxylic acid hydroxyamide], for which the “% inhibition HDAC @ 100 μM” value in experiment [1] turned out to be 95%. In the experiment with MCF7 cells, this compound yielded an inhibition at 100 µM of 97.6%.

With `O=C(NO)c1cnc(N2CCN(S(=O)(=O)c3ccc(-c4ccco4)cc3)CC2)s1` [Example 59, 2-(4-{[4-(2-furyl)phenyl]sulfonyl}piperazin-1-yl)-1,3-thiazole-5-carboxylic acid hydroxyamide], in experiment [1], the “% inhibition HDAC @ 100 μM” value was determined as 99%. This compound yielded an inhibition at 100 µM with MCF7 cells of 98.9%.
